pIC50: −log10 of the molar value. ≈ marks a conversion by molar mass, not a printed value.
What was measured:
HL-60 [1] = experiment: Tested for the cytostatic activity as inhibitory concentration against leukemia HL-60 cells; type: functional, cell-based; conditions: Homo sapiens
Lu-65 = experiment: Tested for the cytostatic activity as inhibitory concentration against Lu-65 human pulmonary large cell carcinoma; type: functional, cell-based
P388CPT = experiment: Tested for the cytostatic activity as inhibitory concentration against camptothecin resistant P-388 mouse leukemia cells; type: functional, cell-based
Mus musculus = experiment: Increased life span against mouse P388 leukemic cells after 0.01 mg/kg administration in mice; type: functional
Lu-99 cell line = experiment: Tested for the cytostatic activity as inhibitory concentration against Lu-99 human pulmonary large cell carcinoma; type: functional, cell-based
HL-60 [2] = experiment: Tested in vitro for cytostatic activity against 60-cell line; type: functional, Homo sapiens
CCRF-CEM = experiment: Tested for the cytostatic activity as inhibitory concentration against CCRF-CEM human leukemia cells; type: functional, cell-based
RERF-LC-AI = experiment: Tested for the cytostatic activity as inhibitory concentration against RERF-LC-AI human pulmonary squamous cell carcinoma; type: functional, cell-based
FM3A = experiment: Tested for the cytostatic activity as inhibitory concentration against FM3A mouse mastrocarcinoma cells; type: functional, cell-based
CCD 19Lu = experiment: Tested for the cytostatic activity as inhibitory concentration against CCD-19Lu (human normal pulmonary) cells; type: functional, cell-based
Homo sapiens = species on record: Homo sapiens; experiment: Tested for hemolytic activity in human erythrocytes at 100 ug/ml; Not hemolytic; type: functional
NCI-60 panel = experiment: Tested in vitro for cytostatic activity against 60-cell line; conditions: Homo sapiens
P388/ADM = experiment: Tested for the cytostatic activity as inhibitory concentration against adriamycin resistant P-388 mouse leukemia cells; type: functional, cell-based
A549 = experiment: Tested for the cytostatic activity as inhibitory concentration against A-549 human pulmonary adenocarcinoma cells; type: functional, cell-based
P388 = experiment: Tested for the cytostatic activity as inhibitory concentration against P-388 mouse leukemia cells; type: functional, cell-based
[3] = Homo sapiens, Lu-99, read-out: IC50
[4] = Homo sapiens, CCRF-CEM, read-out: IC50
[5] = Homo sapiens, CCD 19Lu, read-out: IC50
[6] = Mus musculus, P388, read-out: IC50

Row | pIC50 (HL-60 [1]) | Compound | IC50 (Lu-99 cell line; [3]) [ng/mL] | IC50 (CCRF-CEM; [4]) [ng/mL] | IC50 (CCD 19Lu; [5]) [ng/mL] | IC50 (P388; [6]) [ng/mL] | other results
1 | 9.62 | COc1ccc(C(=O)O[C@@H]2[C@H](O[C@H]3[C@@H](OC(C)=O)[C@H](O[C@H]4C[C@H]5[C@@H]6CC=C7C[C@@H](O[C@@H]8O[C@@H](CO)[C@@H](O)[C@H](O)[C@@H]8O)CC[C@]7(C)[C@H]6CC[C@]5(C)[C@@]4(O)[C@H](C)C(=O)CCC(C)C)OC[C@@H]3O)OC[C@@H](O)[C@@H]2O)cc1 |  |  |  |  | 
2 | 9.54 | CC(=O)O[C@H]1[C@H](O[C@H]2C[C@H]3[C@@H]4CC=C5C[C@@H](O)CC[C@]5(C)[C@H]4CC[C@]3(C)[C@@]2(O)[C@H](C)C(=O)CCC(C)C)OC[C@H](O)[C@H]1O[C@@H]1OC[C@@H](O)[C@H](O)[C@@H]1OC(=O)/C=C/c1ccccc1 |  |  |  |  | 
3 | 9.70 | COc1ccc(C(=O)O[C@@H]2[C@H](O[C@H]3[C@@H](OC(C)=O)[C@H](O[C@H]4C[C@H]5[C@@H]6CC=C7C[C@@H](O)CC[C@]7(C)[C@H]6CC[C@]5(C)[C@]4(O)[C@H](C)C(=O)CCC(C)C)OC[C@@H]3O)OC[C@@H](O)[C@@H]2O)cc1OC |  |  |  |  | 
4 | 9.92 | CC(=O)O[C@H]1[C@H](O[C@H]2C[C@H]3[C@@H]4CC=C5C[C@@H](O[C@@H]6O[C@@H](CO)[C@@H](O)[C@H](O)[C@@H]6O)CC[C@]5(C)[C@H]4CC[C@]3(C)[C@@]2(O)[C@H](C)C(=O)CCC(C)C)OC[C@H](O)[C@H]1O[C@@H]1OC[C@@H](O)[C@H](O)[C@@H]1OC(=O)/C=C/c1ccccc1 |  |  |  |  | 
5 |  | CC[C@@]1(O)C(=O)OCc2c1cc1n(c2=O)Cc2cc3ccccc3nc2-1 [CAMPTOTHECIN] | 1 (≈ 2.87 nM) | 5 (≈ 14.4 nM) | 2000 (≈ 5740 nM) | 5 (≈ 14.4 nM) | 
6 |  | COc1cccc2c1C(=O)c1c(O)c3c(c(O)c1C2=O)C[C@@](O)(C(=O)CO)C[C@@H]3O[C@H]1C[C@H](N)[C@H](O)[C@H](C)O1 [DOXORUBICIN] | 2 (≈ 3.68 nM) | 10 (≈ 18.4 nM) | 2000 (≈ 3680 nM) | 3 (≈ 5.52 nM) | 
7 |  | CO[C@@]12[C@H](COC(N)=O)C3=C(C(=O)C(C)=C(N)C3=O)N1C[C@@H]1N[C@@H]12 [MITOMYCIN] | 10 (≈ 29.9 nM) | 20 (≈ 59.8 nM) | 2000 (≈ 5980 nM) | 10 (≈ 29.9 nM) | 
8 |  | CC(=O)O[C@H]1C(=O)[C@@]2(C)[C@H]([C@H](OC(=O)c3ccccc3)[C@]3(O)C[C@H](OC(=O)[C@H](O)[C@@H](NC(=O)c4ccccc4)c4ccccc4)C(C)=C1C3(C)C)[C@]1(OC(C)=O)CO[C@@H]1C[C@@H]2O [PACLITAXEL] | 2 (≈ 2.34 nM) | 1 (≈ 1.17 nM) | 2000 (≈ 2340 nM) | 10 (≈ 11.7 nM) | 
9 |  | CISPLATIN |  |  |  |  | IC50 (Lu-99 cell line; lu-99): 1 ng/mL; IC50 (CCRF-CEM; ccrf-cem): 5 ng/mL; IC50 (CCD 19Lu; ccd 19lu): 10000 ng/mL; IC50 (P388; p388): 50 ng/mL

Row | Compound | pIC50 (HL-60 [1]) | IC50 (Lu-99 cell line; [3]) [ng/mL] | IC50 (CCRF-CEM; [4]) [ng/mL] | IC50 (CCD 19Lu; [5]) [ng/mL] | IC50 (P388; [6]) [ng/mL] | other results
10 | COc1ccc(C(=O)O[C@@H]2[C@H](O[C@H]3[C@@H](OC(C)=O)[C@H](O[C@H]4C[C@H]5[C@@H]6CC=C7C[C@@H](O)CC[C@]7(C)[C@H]6CC[C@]5(C)[C@@]4(O)[C@H](C)C(=O)CCC(C)C)OC[C@@H]3O)OC[C@@H](O)[C@@H]2O)cc1 | 9.60 | 0.2 (≈ 0.229 nM) | 0.16 (≈ 0.183 nM) | 1500 (≈ 1720 nM) | 0.13 (≈ 0.149 nM) | IC50 (Lu-65): 0.2 ng/mL (≈ 0.229 nM); IC50 (P388CPT): 0.1 ng/mL (≈ 0.115 nM); ILS at 0.01 mg/kg (Mus musculus): 59%; IC100 (HL-60 [2]): 58 nM; IC50 (RERF-LC-AI): 0.26 ng/mL (≈ 0.298 nM); IC50 (FM3A): 0.16 ng/mL (≈ 0.183 nM); Activity (Homo sapiens): Not hemolytic; pIC50 (NCI-60 panel): 9.11; IC50 (P388/ADM): 0.77 ng/mL (≈ 0.882 nM); IC50 (A549): 0.68 ng/mL (≈ 0.779 nM)
11 | CC(C)CCC(=O)[C@@H](C)[C@@]1(O)[C@@H](O[C@@H]2OC[C@H](O)[C@@H](O[C@@H]3OC[C@@H](O)[C@H](O)[C@@H]3O)[C@H]2O)C[C@H]2[C@@H]3CC=C4C[C@@H](O)CC[C@]4(C)[C@H]3CC[C@@]21C | 6.72 |  |  |  |  | 

— ChEMBL document CHEMBL1151493, “Cholestane glycosides with potent cytostatic activities on various tumor cells from Ornithogalum saundersiae bulbs” (Bioorg Med Chem Lett, 1997)
